Values joined by “and” are separate entries in the source; they are usually repeats but may differ in a detail not shown here. Equal values may be shown once. Read-outs that look alike come from different tables or passages of the source.
Molecular target: BRD3 (Homo sapiens, UniProt Q15059)
Assay: Western blot of BRD3 levels after cellular dosing
Conditions: for DC50: read-out: BRD3 DC50
[1] = U2OS, read-out: BRD3 level, Western blot quantification (DMSO = 100), Fig S6d, U2OS KO/rescue Dose Response
[2] = read-out: BRD3 level, Western blot quantification (DMSO = 100), Fig S6e, PC3 KO/rescue Dose Response

Chain of BRD3 (Q15059 whole entry): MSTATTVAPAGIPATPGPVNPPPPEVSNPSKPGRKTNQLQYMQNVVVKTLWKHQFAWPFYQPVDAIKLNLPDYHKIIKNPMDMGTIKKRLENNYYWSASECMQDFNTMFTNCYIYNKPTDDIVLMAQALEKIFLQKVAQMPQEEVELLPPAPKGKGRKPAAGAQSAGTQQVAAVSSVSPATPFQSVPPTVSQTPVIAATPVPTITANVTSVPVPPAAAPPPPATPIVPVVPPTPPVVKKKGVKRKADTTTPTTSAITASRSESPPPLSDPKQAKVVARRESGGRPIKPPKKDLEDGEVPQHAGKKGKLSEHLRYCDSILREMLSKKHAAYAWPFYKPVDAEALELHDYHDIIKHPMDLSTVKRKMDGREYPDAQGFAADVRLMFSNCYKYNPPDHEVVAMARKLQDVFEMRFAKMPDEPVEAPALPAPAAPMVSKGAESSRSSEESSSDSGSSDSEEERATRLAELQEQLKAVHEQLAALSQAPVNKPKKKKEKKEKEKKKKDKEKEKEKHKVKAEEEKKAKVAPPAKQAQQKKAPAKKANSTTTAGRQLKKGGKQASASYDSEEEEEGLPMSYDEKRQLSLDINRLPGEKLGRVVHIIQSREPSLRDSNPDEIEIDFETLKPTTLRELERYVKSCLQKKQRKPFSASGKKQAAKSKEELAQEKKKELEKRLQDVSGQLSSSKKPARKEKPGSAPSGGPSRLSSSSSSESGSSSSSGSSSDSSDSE

## COC(=O)CNC(=O)Cc1csc(-c2ccc3cccc(OCCN4CCN(C(=O)C[C@@H]5N=C(c6ccc(Cl)cc6)c6c(sc(C)c6C)-n6c(C)nnc65)CC4)c3c2)n1 [SJ46420]
SK-BR-3, 8 h, read-out: BRD3 level, Western blot quantification (DMSO = 100), Fig S6g, SKBR3 Time course, 5 uM, 8hr
  remaining activity at 5 µM: 10.6%
SK-BR-3, read-out: BRD3 level, Western blot quantification (DMSO = 100), Fig S6i, SKBR3, 5uM
  remaining activity at 5 µM: 27.2%
SKBR3 4 h, U2OS 8 h
  potency relative to K2-B4-3e (more potent): ~ 3 fold and 2-3 fold
SKBR3, 8 hr
  selectivity of BRD3 over BRD4 degradation: ~ 5 fold
SKBR3, 24 hr
  selectivity of BRD3 over BRD4 degradation: ~ 1.5 fold
SKBR3, within two hours
  reduction of the levels of BRD3: ~ 70%
U2OS KO/Rescue, 24 h dose
  BRD3 Dmax: ~ 100%
U2OS KO/rescue
  selectivity for BRD3 over BRD2 and BRD4 (DC50): ~ 2.5 fold
U2OS cells
  time of maximal degradation: 8 h
U2OS, 2 h, read-out: BRD3 level relative to DMSO (100%), U2OS, 5µM, 2hr, Fig S6h
  remaining activity at 5 µM: 93 ± 9.8%
U2OS, 2 h, read-out: BRD3 level, Western blot quantification (DMSO = 100), Fig S6h, U2OS Time course, 5uM, 2hr
  remaining activity at 5 µM: 91.4%
U2OS, 4 h, read-out: BRD3 level relative to DMSO (100%), U2OS, 5µM, 4hr, Fig S6h
  remaining activity at 5 µM: 68 ± 9.8%
U2OS, 4 h, read-out: BRD3 level, Western blot quantification (DMSO = 100), Fig S6h, U2OS Time course, 5uM, 4hr
  remaining activity at 5 µM: 71.3%
U2OS, 8 h, read-out: BRD3 level relative to DMSO (100%), U2OS, 5µM, 8hr, Fig S6i
  remaining activity at 5 µM: 41 ± 5.4%
U2OS, 8 h, read-out: BRD3 level relative to DMSO (100%), U2OS, 5µM, 8hr, Fig S6h
  remaining activity at 5 µM: 28 ± 9.8%
U2OS, 8 h, read-out: BRD3 level, Western blot quantification (DMSO = 100), Fig S6h, U2OS Time course, 5uM, 8hr
  remaining activity at 5 µM: 31.8%
U2OS, 24 h, read-out: BRD3 level relative to DMSO (100%), U2OS DC2KO (KLHDC2 knockout), 5µM, 24 h, Fig 6b
  remaining activity at 5 µM: 100 ± 6.8%
U2OS, 24 h, read-out: BRD3 level relative to DMSO (100%), U2OS KO/Rescue, 0.16µM, 24 h, Fig S6d
  remaining activity at 0.16 µM: 85 ± 13%
U2OS, 24 h, read-out: BRD3 level relative to DMSO (100%), U2OS KO/Rescue, 0.31µM, 24 h, Fig S6d
  remaining activity at 0.31 µM: 65 ± 14%
U2OS, 24 h, read-out: BRD3 level relative to DMSO (100%), U2OS KO/Rescue, 0.63µM, 24 h, Fig S6d
  remaining activity at 0.63 µM: 39 ± 8.5%
U2OS, 24 h, read-out: BRD3 level relative to DMSO (100%), U2OS KO/Rescue, 1µM + co-dosing 1µM MLN4924, 24 h, Fig 6d
  remaining activity at 1 µM: 120 ± 1.5%
U2OS, 24 h, read-out: BRD3 level relative to DMSO (100%), U2OS KO/Rescue, 1µM, 24 h, Fig 6c
  remaining activity at 1 µM: 45 ± 3.6%
U2OS, 24 h, read-out: BRD3 level relative to DMSO (100%), U2OS KO/Rescue, 1µM, 24 h, Fig 6d
  remaining activity at 1 µM: 25 ± 8.2%
U2OS, 24 h, read-out: BRD3 level relative to DMSO (100%), U2OS KO/Rescue, 1.3µM, 24 h, Fig S6d
  remaining activity at 1.3 µM: 12 ± 1.8%
U2OS, 24 h, read-out: BRD3 level relative to DMSO (100%), U2OS KO/Rescue, 2.5µM, 24 h, Fig S6d
  remaining activity at 2.5 µM: 0.77 ± 0.16%
U2OS, 24 h, read-out: BRD3 level relative to DMSO (100%), U2OS KO/Rescue, 5µM, 24 h, Fig S6d
  remaining activity at 5 µM: 0.34 ± 0.11%
U2OS, 24 h, read-out: BRD3 level relative to DMSO (100%), U2OS, 5µM, 24 h, Fig 6b
  remaining activity at 5 µM: 30.9 ± 4.1%
U2OS, 24 h, read-out: BRD3 level relative to DMSO (100%), U2OS, 5µM, 24hr, Fig S6h
  remaining activity at 5 µM: 41 ± 9.8%
U2OS, 24 h, read-out: BRD3 level, Western blot quantification (DMSO = 100), Fig S6h, U2OS Time course, 5uM, 24hr
  remaining activity at 5 µM: 43.5%
U2OS, 24 hr
  selectivity of BRD3 over BRD4 degradation: ~ 1.4 fold
U2OS, read-out: BRD3 (DMSO = 100), U2OS KO/Rescue cells, Log SJ46420 (uM) 1.59176, Rep1, Rep2
  remaining activity at 1.59176 µM: 95%
U2OS, read-out: BRD3 (DMSO = 100), U2OS KO/Rescue cells, Log SJ46420 (uM) 2.49485, Rep1, Rep2
  remaining activity at 2.49485 µM: 47.6%
U2OS, read-out: BRD3 (DMSO = 100), U2OS KO/Rescue cells, Log SJ46420 (uM) 2.79588, Rep1, Rep2
  remaining activity at 2.79588 µM: 11.4%
U2OS, read-out: BRD3 (DMSO = 100), U2OS KO/Rescue cells, Log SJ46420 (uM) 3.09691, Rep1, Rep2
  remaining activity at 3.09691 µM: 0.66%
U2OS, read-out: BRD3 (DMSO = 100), U2OS KO/Rescue cells, Log SJ46420 (uM) 3.39794, Rep1, Rep2
  remaining activity at 3.39794 µM: 0.34%
U2OS, read-out: BRD3 (DMSO = 100), U2OS KO/Rescue cells, Log SJ46420 (uM) 3.69897, Rep1, Rep2
  remaining activity at 3.69897 µM: 0.161%
U2OS, read-out: BRD3 Dmax, U2OS KO/Rescue, 24 h dose
  Dmax: 99.9%
U2OS, read-out: BRD3 level, Western blot quantification (DMSO = 100), Fig 6b, U2OS, 5 uM
  remaining activity at 5 µM: 33.9%
U2OS, read-out: BRD3 level, Western blot quantification (DMSO = 100), Fig S6i, U2OS, 5uM
  remaining activity at 5 µM: 52.9%
U2OS, read-out: BRD3 level, Western blot quantification (DMSO = 100), Fig S6d, U2OS KO/rescue Dose Response, 0.156 uM
  remaining activity at 0.156 µM: 108%
U2OS, read-out: BRD3 level, Western blot quantification (DMSO = 100), Fig S6d, U2OS KO/rescue Dose Response, 0.313 uM
  remaining activity at 0.313 µM: 70.7%
[1]
  remaining activity at 0.625 µM: 29.3%
  remaining activity at 1.25 µM: 11.3%
U2OS, read-out: BRD3 level, Western blot quantification (DMSO = 100), Fig S6d, U2OS KO/rescue Dose Response, 2.5 uM
  remaining activity at 2.5 µM: 5.44%
From time-course of BRD3 levels between 8 h and 24 h
  stability in cells: relatively unstable
22Rv1, 24 h dose
  DC50: 458 nM
PC3, 24 h dose
  DC50: 487 nM
read-out: BRD3 Dmax, PC3, 24 h dose
  Dmax: 99.9%
read-out: BRD3 level, Western blot quantification (DMSO = 100), Fig 6b, KO/Rescue, 5 uM
  remaining activity at 5 µM: 105%
read-out: BRD3 level, Western blot quantification (DMSO = 100), Fig 6c, 1 uM
  remaining activity at 1 µM: 43.9%
read-out: BRD3 level, Western blot quantification (DMSO = 100), Fig 6d, 1 uM
  remaining activity at 1 µM: 19%
read-out: BRD3 level, Western blot quantification (DMSO = 100), Fig 6d, 1uM together with 1uM MLN4924
  remaining activity at 1 µM: 120%
[2]
  remaining activity at 0.625 µM: 47.6%
  remaining activity at 1.25 µM: 11.4%
read-out: BRD3 level, Western blot quantification (DMSO = 100), Fig S6e, PC3 KO/rescue Dose Response, 2.5 uM
  remaining activity at 2.5 µM: 0.66%
read-out: BRD3 level, Western blot quantification (DMSO = 100), Fig S6e, PC3 KO/rescue Dose Response, 5 uM
  remaining activity at 5 µM: 0.34%
read-out: BRD3 level, Western blot quantification (DMSO = 100), Fig S6e, PC3 KO/rescue Dose Response, 10uM
  remaining activity at 10 µM: 0.161%
wild-type U2OS, 24 h dose, Fig 6b
  BRD degradation activity in U2OS cells: efficiently and selectively targeted BRD3 for degradation

Reference: PMC11470957, “Principles of paralog-specific targeted protein degradation engaging the C-degron E3 KLHDC2” (Nature Communications, 2024)
